{
  "source": "patent US10869834B2",
  "about": "“Treatment of inflammatory bowel disease” (University College Dublin, National University of Ireland, …, priority 2016, dated 2020)",
  "key": {"C. rodentium [1]": {"system": "C. rodentium", "settings": "H2O2 generated by Cos-NOX4 cells vs Cos-p22 negative control; 4 h, DMEM; separated by a filter; n=4", "method": "(§1) Cos-NOX4 and Cos-p22 cells in DMEM, 5% FBS (Cell Signal 18:69-82, 2006; J Biol Chem 283:35273-82, 2008; Mol Cell Biol 30:961-75, 2010) were seeded into the lower chamber of a Boyden chamber (pore width 0.4 μm) 48 h before the assay. Lactobacilli grown in DMEM were suspended in media onto the upper chamber. Co-culture was initiated for 3-4 h in DMEM, 5% FBS media followed by harvesting of bacteria on the filter for RNA isolation."}, "EPEC": {"system": "EPEC", "settings": "H2O2 released from Cos-NOX4 cells (not Cos-p22) for 3 h; separated by a filter", "method": "as §1"}, "C. rodentium [2]": {"system": "C. rodentium", "settings": "single bolus of 1 mM H2O2 in DMEM, analysed 3 h later", "method": "(§2) Invasion and adhesion assays were performed as previously reported (Cell Host Microbe 12:47-59, 2012). Bacterial cell viability was assessed using the XTT (2,3-Bis-(2-Methoxy-4-Nitro-5-Sulfophenyl)-2H-Tetrazolium-5-Carboxanilide) assay. For in vitro experiments bacteria were exposed at time zero once to 0.7 mM H2O2, except for C. jejuni (5 mM), and analyzed after indicated time periods (up to 3 h, except C. jejuni up to 6 h)."}, "L. monocytogenes [3]": {"system": "L. monocytogenes", "method": "as §2"}, "S. pneumoniae [4]": {"system": "S. pneumoniae", "settings": "0.7 mM H2O2 for 3 h", "method": "as §2"}, "C. rodentium [5]": {"system": "C. rodentium", "experiment": "C. rodentium infection of mice treated with L. johnsonii by oral gavage", "type": "in vivo, C57Bl/6 mice", "settings": "daily oral gavage with NCC533 or NCC9359 prior and during infection; 6 dpi", "method": "Cyba^flox/flox mice were bred to B6.SJL-Tg (Vil-cre) 997Gum/J mice (Jackson Laboratories) to generate mice with a targeted deletion of p22^phox in the epithelium of the small intestine and colon (p22ΔIEC). Mice were infected by oral gavage with 0.3 ml of an overnight culture of Luria Bertani broth containing 5×10^9 Citrobacter rodentium and analyzed at day 6 post infection. L. johnsonii NCC533/NCC9359 pretreatment and treatment: L. johnsonii NCC533 and NCC9359 strains were administered at a concentration of 10^9 CFU to WT mice via oral gavage starting 3 days prior C. rodentium inoculation and daily during C. rodentium infection. For histopathology Carnoy-fixed distal colons were embedded in paraffin and 5 μm sections were stained with hematoxylin and eosin (H&E)."}, "murine colitis (3% DSS)": {"system": "murine colitis (3% DSS)", "experiment": "In-vivo murine colitis model (3% DSS), administration of H2O2-producing bacteria", "design": "species or system mice", "method": "Wildtype mice were treated with 1×10^9 bacteria by daily oral gavage 5 days before, during colitis (3% DSS in water) and until the end of the experiment (day 16). On day 7 of DSS treatment, DSS was replaced with water to enable the healing process. […] One-way Anova with Tukey post-hoc test; **p=0.01, ***p=0.001."}, "[6]": {"system": "bacterial phosphotyrosine signalling", "settings": "H2O2 generated by colon cells, human biopsies and rabbit loop model during pathogen exposure; co-culture 3 h", "protocol": "Bacteria in RPMI 1640 containing 3% FBS (OD600=0.4; 10^7 bacteria, 1 ml) were incubated with HCT-8 cells at 37° C. in microaerophilic conditions with MOI 50. DPI pretreatment of HCT-8 cells was for 20 min (25 μM). Non-adherent bacteria were removed by centrifugation of media (3300 g, 5 min), and were used for immunoblotting. […] Exposure of bacteria to H2O2 released by Cos cells stable expressing the NOX4-p22^phox complex or as negative control Cos cells expressing only p22^phox was performed using Boyden chambers. Cells in DMEM, 10% FBS medium were seeded into the bottom chamber 24 h before start of the experiment and then moved to microaerophilic conditions for 3 h. Bacteria grown in microaerophilic conditions were resuspended in 5% O2 conditioned DMEM, 3-10% FBS medium, placed on top of the filter (3 μm pore size) and incubated for 3 h. Bacteria were harvested from the filter for analysis.\nPolarized In Vitro Organ Culture (pIVOC): pIVOC experiments of colon biopsies were performed as described (Cell Host Microbe 12:47-59, 2012). Bacterial infections were conducted using microaerophilic preconditioned media or buffers. L. monocytogenes was added at a final OD600=0.2 to the apical side of biopsies and H2O2 release was measured. Controls were either non-infected biopsies or biopsies pretreated with 20 μM DPI for 20 min before addition of C. jejuni or L. monocytogenes to the top chamber. […]"}, "L. monocytogenes [7]": {"system": "L. monocytogenes", "settings": "Cos-NOX4 cell-produced H2O2 vs Cos-p22", "protocol": "Exposure of bacteria to H2O2 released by Cos cells stable expressing the NOX4-p22^phox complex or as negative control Cos cells expressing only p22^phox was performed using Boyden chambers. Cells in DMEM, 10% FBS medium were seeded into the bottom chamber 24 h before start of the experiment and then moved to microaerophilic conditions for 3 h. Bacteria grown in microaerophilic conditions were resuspended in 5% O2 conditioned DMEM, 3-10% FBS medium, placed on top of the filter (3 μm pore size) and incubated for 3 h. Bacteria were harvested from the filter for analysis."}, "[8]": {"system": "bacterial phosphotyrosine content", "settings": "0.7 mM H2O2, 3 h; when iron is present; 5% O2", "protocol": "C. jejuni 81-176, L. monocytogenes EGDe and K. pneumoniae were grown microaerophilic to mid-log phase in minimal essential media. Bacteria were collected by centrifugation (5000 rpm, 10 min) and diluted to OD600=0.2 in MEM. Iron (II) sulfate (40 μM) was added as indicated and cultures were grown microaerophilic until OD600=0.5 was reached. To C. jejuni 81-176 cultures 5 mM H2O2 was added and the growth continued microaerophilic for 8 h. L. monocytogenes and K. pneumoniae cultures were exposed to 0.7 mM H2O2 for 3 h in microaerophilic conditions. Bacteria were then diluted to OD600=0.2, collected by centrifugation, washed twice with 25 mM Tris-HCl, resuspended in 30 μl Laemmli buffer and heated for 5 min at 95° C. Boiled samples were loaded on 10% SDS-PAGE gels, separated by electrophoresis and immunoblotted. The control samples followed an identical protocol without supplemental iron or added H2O2."}, "S. pneumoniae [9]": {"system": "S. pneumoniae", "settings": "bacteria pretreated with 0.7 mM H2O2 for 3 h", "protocol": "Biofilm was analyzed using SYTO9. Cultured bacteria were grown in microaerophilic conditions overnight. The bacterial culture was then adjusted to OD600=0.1 and 1 ml of this solution was added to an optical grade plastic bottom μ-plate 24 well. Bacteria were incubated for an additional 72 h in microaerophilic conditions. Bacteria were washed gently with autoclaved water to remove planktonic cells and fixed with 3% paraformaldehyde in PBS for 1 h. Images were then analyzed for total intensity of SYTO9 fluorescence over the imaged volumes using Fiji. Briefly, after staining with SYTO9, 50 independent 13.2 μm stacks of 60 images at a 0.22 μm Z resolution were imaged for all conditions. The mean fluorescence of the different slices in the stacks was measured and a standard deviation was computed from the aggregated data per slice."}, "mucus secretion": {"system": "mucus secretion", "settings": "Birchenough G. et al., Science 352:1535-1542; cited from earlier work"}, "[10]": {"settings": "bacteria pretreated with 0.7 mM H2O2 for 3 h"}, "[11]": {"settings": "daily oral gavage 5 days before, during colitis and until day 16"}},
  "data": [
    {"smiles": "OO", "note": "[H2O2, hydrogen peroxide]", "values": [
      {"measurement": "ler and escN expression in C. rodentium (qPCR)", "setting": "C. rodentium [1]", "result": "Downregulation of LEE island genes"},
      {"measurement": "ler and escN expression in EPEC (qPCR)", "setting": "EPEC", "result": "Downregulation of LEE island genes"},
      {"measurement": "ler expression in C. rodentium (qPCR)", "setting": "C. rodentium [2]", "result": "Downregulation of ler"},
      {"measurement": "bacterial viability after treatment", "setting": "L. monocytogenes [3]; 0.7 mM H2O2 for 3 h", "result": "remained fully viable"},
      {"measurement": "adherence to HCT-8 colon cells", "setting": "L. monocytogenes [3]; [10]", "result": "reduced"},
      {"measurement": "invasion of HCT-8 colon cells", "setting": "L. monocytogenes [3]; [10]", "result": "reduced"},
      {"measurement": "bacterial viability after treatment", "setting": "S. pneumoniae [4]", "result": "remained fully viable"},
      {"measurement": "host epithelial tissue damage (H&E staining of colon sections)", "setting": "C. rodentium [5]", "result": "required to prevent host epithelial tissue damage"},
      {"measurement": "recovery after insult (disease index, body weight)", "setting": "murine colitis (3% DSS); daily administration, low nanomolar H2O2 (via NCC533, 1x10^9 bacteria oral gavage), DSS replaced with water on day 7", "result": "accelerates recovery after insult"},
      {"measurement": "inflammation (colon length as indicator)", "setting": "murine colitis (3% DSS); [11]", "result": "downregulates inflammation"},
      {"measurement": "tissue restitution (H&E staining of colon day 11)", "setting": "murine colitis (3% DSS); [11]", "result": "supports rapid tissue restitution"},
      {"measurement": "bacterial phosphotyrosine signalling (anti-phosphotyrosine immunoblots)", "setting": "[6]", "result": "downregulates bacterial phosphotyrosine signalling"},
      {"measurement": "bacterial phosphotyrosine content (anti-phosphotyrosine immunoblot)", "setting": "L. monocytogenes [7]", "result": "marked decrease in bacterial phosphotyrosine content"},
      {"measurement": "bacterial phosphotyrosine content (anti-phosphotyrosine immunoblots)", "setting": "[8]", "result": "decreases bacterial phosphotyrosine content"},
      {"measurement": "biofilm formation (mean SYTO9 fluorescence)", "setting": "S. pneumoniae [9]", "result": "Reduced biofilm formation"},
      {"measurement": "mucus secretion", "setting": "mucus secretion", "result": "can restore mucus secretion"}
    ]}
  ]
}
